In patent publication US10273279B2, “Protease activated receptor-1 (PAR1) derived cytoprotective polypeptides and related methods” (THE SCRIPPS RESEARCH INSTITUTE, priority 2011, dated 2019):
Where no end group is shown, it is not given here.

Key:
[1] = test system: glycogen synthase kinase 3β (GSK3β) phosphorylation at Ser9; experiment: GSK3β Ser9 phosphorylation in endothelial cells; type: cell-based, human
Method: To further confirm activation of Akt by the TR47-66 peptide, Akt-mediated inactivation of glycogen synthase kinase 3β (GSK3β) via phosphorylation at Ser9 was determined. GSK3β is a well-known downstream substrate for Akt.

[2] = test system: Akt phosphorylation at Ser473 in EA.hy.926 human endothelial cells; experiment: Akt Ser473 phosphorylation in EA.hy.926 endothelial cells (in-cell Western); type: cell-based
Excerpt: (§1) Activated Protein C (APC) cleaves a synthetic PAR1 tail peptide at Arg^41 and Arg^46; furthermore, APC cleaves SEAP-PAR1 mutants with the mutations R41A or R41Q but not SEAP-PAR1 with both R41Q/R46Q mutations. […] It was thus hypothesized that a new PAR1 N-terminus beginning at residue Asn-47 promotes PAR1 signaling and APC cytoprotective activities. Since phosphorylation of signaling network components is useful for monitoring activation of signaling pathways, the effects of synthetic PAR1 peptides on Akt and ERK1/2 phosphorylation in EA.hy.926 human endothelial cells were studied. Cells were treated for 0, 5 or 30 min with peptides prior to cell fixation, permeabilization of cells and subsequent immunoblotting analysis (“in-cell Western blotting”). Relative phosphorylation of Akt at Ser^473 (pSer^473-Akt) or of ERK1/2 at Thr202/204 (pERK1/2) in endothelial cells was quantified using the LI-COR Odyssey infrared (IR) fluorescence imaging system which permits “in cell” Western blots. The Odyssey permits simultaneous quantification of different antibodies that yield either red or green signals.
(§2) Methods: EA.hy.926 cells (ATCC: CRL-2922) were grown in black clear bottom 96 well plates (Nunc) in DMEM (Invitrogen #12430) supplemented with glutamax (Invitrogen #35050) and 10% FBS (Hyclone #35-011-CV) in a 37° C. cell incubator with a humidified atmosphere and 5% CO2 in air until confluency. Cells were treated for 0, 5 or 30 min with PAR1 peptides TFLL (50 μM), NPND (250 μM) or scr-NPND (250 μM) or with vehicle in serum free media. Subsequently cells were fixed with methanol free 4% para-formaldehyde (Pierce), washed with phosphate buffered saline (PBS; Invitrogen) containing 1% triton X-100 and blocked with Odyssey blocking buffer (Licor). Cells were incubated with rabbit anti-pT202/Y204 ERK1/2 (1/1000; Cell signaling D13.14.4E) or rabbit anti-pSer^473 (1/100; cell signaling D9E) with Odyssey blocking buffer. After washing with PBS/0.1% Tween (1/800), IRDye 800CW-labelled secondary goat anti-rabbit antibodies (Licor) were added to the cells in Odyssey blocking buffer and 1/10,000 Draq5 (Biostatus) for cell normalization. After final washing with PBS/0.1% Tween IR, the fluorescence of bound antibodies was determined using the Odyssey (Licor). Background fluorescence was determined by omitting the primary antibody and subtracting values for controls from all other observed values.

[3] = test system: ERK1/2 phosphorylation at Thr202/204 in EA.hy.926 human endothelial cells; experiment: ERK1/2 phosphorylation in EA.hy.926 endothelial cells (in-cell Western); type: cell-based
Excerpt: as §1, §2

[4] = test system: EA.hy.926 endothelial cells; experiment: Staurosporine-induced endothelial cell apoptosis (Apopercentage dye); type: cell-based, human; conditions: 4 hrs pretreatment; 50 μM NPND, 50 μM scr-NPND or 10 μM TFLL; staurosporine 10 μM
Method: Activated Protein C (APC) conveys anti-apoptotic activity to EA.hy.926 cells that requires functional PAR1 receptor and APC binding to the endothelial protein C receptor (EPCR). See, e.g., Mosnier at al., Biochem J. 2003; 373:65-70; and Mosnier at al., Blood. 2007; 109:3161-3172.
Methods: EA.hy.926 cells (ATCC: CRL-2922) were grown in 24 well plates in DMEM (Invitrogen #12430) supplemented with glutamax (Invitrogen #35050) and 10% FBS (Hyclone #35-011-CV) in a 37° C. cell incubator with a humidified atmosphere and 5% CO2 in air until confluency. Cells were treated for 4 hrs with vehicle control, 50 μM NPND, 50 μM scr-NPND or 10 μM TFLL after which staurosporine (10 μM) and the Apopercentage dye (Biocolor) were added according the manufacturer's instructions. After 1 hr cells were washed with 2×1 ml PBS and 110 μl of the dye release agent was added to the cells. Subsequently 100 μl aliquots were transferred to a black 96 well plate and fluorescence was measured (530 nm excitation/580 nm emission). Apoptosis was expressed as a percentage of cells treated with 10 mM H2O2 for which apoptosis was set at 100%.

SEAP-PAR1 = SEAP-PAR1 cleavage reporter on transfected HEK-293 cells (SEAP release); type: cell-based, human; conditions: independent of EPCR
Excerpt: To facilitate analysis of APC-mediated PAR-1 activation, we created a full-length PAR-1 construct linked at the N-terminus to an alkaline phosphatase reporter group (SEAP). Selection of stable cell lines expressing both endothelial protein C receptor (EPCR) (wt or E86A) and SEAP-PAR1 allowed for a reliable and reproducible analysis of EPCR-dependent PAR-1 activation by APC. Mass-spec analysis of cleavage fragments generated by APC of a synthetic PAR-1 N-terminal tail peptide (TR33-62) identified both Arg^41 and Arg^46 as potential cleavage sites for APC proteolysis, as noted above. […] R41Q-SEAP-PAR1 was cleaved by APC in the presence of EPCR. This surprising result was also obtained for R41A-SEAP PAR1.
2009; 113:5970-5978. SEAP-PAR1, either in the presence or absence of wt-EPCR, were transfected into HEK-293 cells to obtain stable cells expressing SEAP-PAR1 or wt-EPCR/SEAP-PAR1. Mutations in SEAP-PAR1 were introduced using the Quickchange method (Agilent). Cells were grown in 96-wells plates to confluency in Dulbeco's modified Eagle media (DMEM): Ham's F-12 (Invitrogen) supplemented with penicillin-streptomycin-glutamine (PSG) (Gibco) and 10% fetal bovine serum (Omega) in a humidified atmosphere at 37° C. and 5% CO2 Cells were washed with Hank's balanced salt solution (HBSS; Invitrogen) supplemented with 1.3 mM CaCl2, 0.6 mM MgCl2 and 0.1% endotoxin free BSA (Calbiochem) and incubated with APC. After 60 min, SEAP release was determined using 1-step PNPP (Pierce). Values were corrected for background activity derived from the same cells incubated in the absence of APC and expressed as a percentage of total SEAP available on the cell membrane.

[5] = 0, 5 or 30 min, TFLL 50 μM, NPND 250 μM, scr-NPND 250 μM

For `CC(C)c1ccc(Cn2ccc3c4c(N)nc(NC5CC5)nc4ccc32)cc1` [SCH79797], which “effect on TR47-66-induced Ser9-GSK3β phosphorylation” value ([1]; PAR1 antagonist added to TR47-66) is on record?
The value was “inhibited”.

With “TFLLRNPNDK (not fully specified) [reference compound]” as the compound, how does the “pSer473-Akt (Akt phosphorylation)” value [2, 5] read?
The value was “essentially no effect”.

What about the “Ser473-Akt phosphorylation (activation of Akt)” value ([2]; Example 7, under the employed experimental conditions) of the same compound?
The value was “neither thrombin nor TRAP induced”.

What about the “ERK1/2 phosphorylation (pERK1/2)” value [3, 5] of the same compound?
Its value is “quickly but transiently stimulated”.

What about the “activation of ERK1/2” value ([3]; Example 7) of the same compound?
The value was “did so”.

What about the “inhibition of staurosporine-induced endothelial cell apoptosis” value [4] of the same compound?
Its value is “did not convey detectable anti-apoptotic effects”.

What about the “phosphorylation of GSK3β at Ser9” value ([1]; Example 7) of the same compound?
Its value is “did not result in Ser9-GSK3β phosphorylation”.

elastase [reference compound] was tested. Which “cleavage of all PAR1 constructs on cells” value (SEAP-PAR1) did it give?
The value was “cleaved all PAR1 constructs on cells with similar efficacy”.
